This test addresses T1, hFASN enzyme (full length) (Homo sapiens, UniProt P49327).
T1 construct: 10 μL hFASN enzyme (full length, 300 ng, purified in house); made in house
The test can be described thus: Fatty Acid Synthase (FASN) inhibition scintillation proximity assay. The following applies: for inhibition at 10 µM: read-out: Human FASN % inhibition @ 10 μM, 10 μM test compound; for IC50: read-out: Human FASN pIC50 (converted). The class given is biochemical. On the procedure:
In this assay, inhibition of FASN activity is measured using ^3H-acetyl-CoA and malonyl-CoA as substrates. ^3H-Acetyl CoA is converted to ^3H-palmitate through a series of reactions by the FASN protein, which contains 7 functional domains and carries out 7 enzymatic reactions to ultimately produce ^3H-palmitate. The assay principle is based upon the fact that ^3H-acetyl-CoA is hydrophilic and the end product, ^3H-palmitate is hydrophobic.
10 μL assay buffer (100 mM KH2PO4 pH 7.5, 1 mM DTT) (20 μL in blanks) was added to a 384-well white optiplate plate (Perkin Elmer). 0.9 μL test compound (at concentrations of 30 μM, 10 μM, 3 μM, 1 μM, 0.30 μM, 0.10 μM, 0.03 μM and 0.01 μM)/DMSO and 10 μL hFASN enzyme (full length, 300 ng, purified in house) or 10 μL assay buffer was added to the wells. […] The reaction was stopped by adding 20 μL Streptavidin coupled imaging beads (25 mg/ml). After incubation for 30 minutes at room temperature in the dark, the 384 well plate was centrifuged at 1500 rpm for 3 minutes and was measured after at least 24 hrs by the LEADseeker™, measuring emission using a 610±20 nm pass filter.
where mLC and mHC were the means of the low control wells and high control wells on the plate, after manual exclusion of outliers. A plot of Controlmin versus test compound concentration was fitted to a 4-parameter logistic curve using a non-linear least squares regression method.
A general note: Scintillation proximity formats need no separation of bound from free tracer.

Molecules are shown by their SMILES. Where only a bound is given, the exact number is not on record here.

T1 sequence (P49327 whole entry): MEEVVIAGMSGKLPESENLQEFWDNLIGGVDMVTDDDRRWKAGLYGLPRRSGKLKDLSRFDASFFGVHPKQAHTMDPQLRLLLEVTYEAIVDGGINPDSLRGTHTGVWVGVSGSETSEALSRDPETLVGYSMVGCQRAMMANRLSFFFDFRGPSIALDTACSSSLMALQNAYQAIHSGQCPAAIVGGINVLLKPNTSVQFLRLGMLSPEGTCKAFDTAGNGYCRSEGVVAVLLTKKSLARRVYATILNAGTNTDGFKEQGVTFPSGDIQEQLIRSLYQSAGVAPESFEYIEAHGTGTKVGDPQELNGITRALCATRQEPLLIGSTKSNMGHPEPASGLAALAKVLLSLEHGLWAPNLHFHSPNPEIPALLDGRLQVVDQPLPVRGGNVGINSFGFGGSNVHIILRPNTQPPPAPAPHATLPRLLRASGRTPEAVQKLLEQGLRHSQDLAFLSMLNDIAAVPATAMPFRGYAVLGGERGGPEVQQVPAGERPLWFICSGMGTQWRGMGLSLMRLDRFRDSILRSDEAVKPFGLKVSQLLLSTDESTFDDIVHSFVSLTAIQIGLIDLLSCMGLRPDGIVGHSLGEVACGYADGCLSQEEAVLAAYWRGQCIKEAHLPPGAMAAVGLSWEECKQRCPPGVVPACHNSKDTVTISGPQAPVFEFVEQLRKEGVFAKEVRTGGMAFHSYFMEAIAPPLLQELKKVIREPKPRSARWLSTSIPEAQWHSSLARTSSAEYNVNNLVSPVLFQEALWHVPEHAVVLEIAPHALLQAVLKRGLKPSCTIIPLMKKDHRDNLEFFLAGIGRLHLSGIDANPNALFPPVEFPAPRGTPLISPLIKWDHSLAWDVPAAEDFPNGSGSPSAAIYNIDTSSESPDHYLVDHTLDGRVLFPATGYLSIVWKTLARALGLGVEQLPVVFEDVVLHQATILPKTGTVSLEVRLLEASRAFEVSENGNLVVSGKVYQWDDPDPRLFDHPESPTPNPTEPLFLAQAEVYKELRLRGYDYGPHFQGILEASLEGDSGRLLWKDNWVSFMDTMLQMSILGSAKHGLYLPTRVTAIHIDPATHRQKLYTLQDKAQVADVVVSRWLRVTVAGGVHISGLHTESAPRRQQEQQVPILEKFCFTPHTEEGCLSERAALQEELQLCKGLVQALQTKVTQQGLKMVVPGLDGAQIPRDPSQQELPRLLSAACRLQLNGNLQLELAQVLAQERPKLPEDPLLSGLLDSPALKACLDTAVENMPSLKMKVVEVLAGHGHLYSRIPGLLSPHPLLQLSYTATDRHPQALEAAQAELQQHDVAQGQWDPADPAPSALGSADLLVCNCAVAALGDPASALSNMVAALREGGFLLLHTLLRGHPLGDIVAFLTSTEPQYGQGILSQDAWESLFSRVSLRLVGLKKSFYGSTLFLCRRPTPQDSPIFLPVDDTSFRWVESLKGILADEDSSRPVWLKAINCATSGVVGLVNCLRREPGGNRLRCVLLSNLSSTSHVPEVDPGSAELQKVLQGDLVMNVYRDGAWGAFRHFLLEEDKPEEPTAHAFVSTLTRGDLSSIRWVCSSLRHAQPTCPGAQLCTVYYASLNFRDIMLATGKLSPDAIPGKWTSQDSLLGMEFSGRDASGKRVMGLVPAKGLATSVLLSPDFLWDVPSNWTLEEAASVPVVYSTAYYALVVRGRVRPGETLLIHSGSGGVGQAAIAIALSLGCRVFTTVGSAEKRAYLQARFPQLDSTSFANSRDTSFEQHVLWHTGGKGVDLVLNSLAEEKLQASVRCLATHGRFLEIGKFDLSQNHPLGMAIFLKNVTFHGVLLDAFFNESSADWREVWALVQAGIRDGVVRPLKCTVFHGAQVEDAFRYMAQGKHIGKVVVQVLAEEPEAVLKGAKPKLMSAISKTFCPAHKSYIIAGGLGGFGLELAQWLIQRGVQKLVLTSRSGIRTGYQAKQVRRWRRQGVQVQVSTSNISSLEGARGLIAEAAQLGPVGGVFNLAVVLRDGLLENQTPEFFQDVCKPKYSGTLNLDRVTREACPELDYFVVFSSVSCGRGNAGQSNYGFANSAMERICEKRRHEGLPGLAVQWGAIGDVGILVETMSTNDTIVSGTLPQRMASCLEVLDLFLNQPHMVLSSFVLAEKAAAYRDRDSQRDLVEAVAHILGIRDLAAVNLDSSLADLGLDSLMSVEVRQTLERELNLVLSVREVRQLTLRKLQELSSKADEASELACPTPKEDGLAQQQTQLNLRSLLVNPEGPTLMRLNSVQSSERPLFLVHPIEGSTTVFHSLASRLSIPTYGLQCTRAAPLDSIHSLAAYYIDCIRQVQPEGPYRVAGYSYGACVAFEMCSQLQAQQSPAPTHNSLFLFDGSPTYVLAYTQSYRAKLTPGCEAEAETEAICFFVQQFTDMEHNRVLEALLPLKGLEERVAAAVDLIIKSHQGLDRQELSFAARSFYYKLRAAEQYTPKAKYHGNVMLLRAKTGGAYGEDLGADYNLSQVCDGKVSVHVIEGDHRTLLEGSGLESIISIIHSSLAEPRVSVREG

As to `O=C(C1CC1)N1CC[C@@H](CN2C(=O)C3(CCCC3)N=C2c2ccc(-c3ccncc3)cc2)C1` [compound 3, 3-{[(3R)-1-(Cyclopropylcarbonyl)pyrrolidin-3-yl]methyl}-2-(4-pyridin-4-ylphenyl)-1,3-diazaspiro[4.4]non-1-en-4-one], the inhibition (in general, the drop in the measured response relative to a control, in per cent) at 10 µM is 44.3% and the IC50 was more than 10 µM.

Turning to `O=C(C1CC1)N1CC[C@@H](CN2C(=O)C3(CCCC3)N=C2c2ccc(-c3cccnc3)cc2)C1` [compound 5, 3-{[(3R)-1-(Cyclopropylcarbonyl)pyrrolidin-3-yl]methyl}-2-(4-pyridin-3-ylphenyl)-1,3-diazaspiro[4.4]non-1-en-4-one], the inhibition at 10 µM was 74.6% and the IC50 was 2.14 µM.

For the compound `O=C(C1CC1)N1CCC(CN2C(=O)C3(CC3)N=C2c2ccc(-c3cccnc3)cc2)CC1` [compound 6, 6-{[1-(Cyclopropylcarbonyl)piperidin-4-yl]methyl}-5-(4-pyridin-3-ylphenyl)-4,6-diazaspiro[2.4]hept-4-en-7-one], the inhibition at 10 µM amounted to 61.6% and the IC50 was 7.24 µM.

With `N#Cc1ccc(-c2ccc(C3=NC4(CC4)C(=O)N3CC3CCN(C(=O)C4CC4)CC3)cc2)cc1` [compound 7, 4′-(6-{[1-(Cyclopropylcarbonyl)piperidin-4-yl]methyl}-7-oxo-4,6-diazaspiro[2.4]hept-4-en-5-yl)biphenyl-4-carbonitrile], the inhibition at 10 µM stood at 33.7%.

Take `Cn1nccc1-c1ccc(C2=NC3(CC3)C(=O)N2CC2CCN(C(=O)C3CC3)CC2)cc1` [compound 8, 6-{[1-(Cyclopropylcarbonyl)piperidin-4-yl]methyl}-5-[4-(1-methyl-1H-pyrazol-5-yl)phenyl]-4,6-diazaspiro[2.4]hept-4-en-7-one]: the inhibition at 10 µM was 5.1% and the IC50 is more than 10 µM.

In the case of `Cn1cc(-c2ccc(C3=NC4(CC4)C(=O)N3CC3CCN(C(=O)C4CC4)CC3)cc2)cn1` [compound 9, 6-{[1-(Cyclopropylcarbonyl)piperidin-4-yl]methyl}-5-[4-(1-methyl-1H-pyrazol-4-yl)phenyl]-4,6-diazaspiro[2.4]hept-4-en-7-one], the inhibition at 10 µM amounted to 11.4% and the IC50 was more than 10 µM.

In the case of `Cn1cc(-c2ccc(C3=NC4(CCCC4)C(=O)N3C[C@@H]3CCN(C(=O)C4CC4)C3)cc2)cn1` [compound 13, 3-{[(3R)-1-(Cyclopropylcarbonyl)pyrrolidin-3-yl]methyl}-2-[4-(1-methyl-1H-pyrazol-4-yl)phenyl]-1,3-diazaspiro[4.4]non-1-en-4-one], the inhibition at 10 µM came out at 29.7% and the IC50 was more than 10 µM.

For the compound `COC(=O)N1CCC2(CC1)N=C(c1ccc(-c3ccc4occc4c3)cc1)N(CC1CN(C(=O)C3CC3)C1)C2=O` [compound 16, Methyl 2-[4-(1-benzofuran-5-yl)phenyl]-3-{[1-(cyclopropylcarbonyl)azetidin-3-yl]methyl}-4-oxo-1,3,8-triazaspiro[4.5]dec-1-ene-8-carboxylate], the inhibition at 10 µM is 72.5% and the IC50 is 1.38 µM.

In the case of `O=C(C1CC1)N1CC[C@@H](CN2C(=O)C3(CCCC3)N=C2c2ccc(-c3ccccn3)cc2)C1` [compound 18, 3-{[(3R)-1-(Cyclopropylcarbonyl)pyrrolidin-3-yl]methyl}-2-(4-pyridin-2-ylphenyl)-1,3-diazaspiro[4.4]non-1-en-4-one], the inhibition at 10 µM came to 42.7% and the IC50 was more than 10 µM.

Consider `O=C(C1CC1)N1CC[C@@H](CN2C(=O)C3(CCCC3)N=C2c2ccc(-c3ccnc4ccccc34)cc2)C1` [compound 22, 3-{[(3R)-1-(Cyclopropylcarbonyl)pyrrolidin-0 3-yl]methyl}-2-(4-quyinolin-4-ylphenyl)-1,3-diazaspiro[4.4]non-1-en-4-one], for which the inhibition at 10 µM amounted to 85% and the IC50 was 1.07 µM.

For `Cn1ncc2ccc(-c3ccc(C4=NC5(CC5)C(=O)N4CC4CCN(C(=O)C5CC5)CC4)cc3)cc21` [compound 24, 6-{[1-(Cyclopropylcarbonyl)piperidin-4-yl]methyl}-5-[4-(1-methyl-1H-indazol-6-yl)phenyl]-4,6-diazaspiro[2.4]hept-4-en-7-one], the inhibition at 10 µM came to 76.4% and the IC50 is 1.86 µM.

Consider `O=C(C1CC1)N1CCC(CN2C(=O)C3(CC3)N=C2c2ccc(-c3ccc4ccncc4c3)cc2)CC1` [compound 25, 6-{[1-(Cyclopropylcarbonyl)piperidin-4-yl]methyl}-5-(4-isoquinolin-7-ylphenyl)-4,6-diazaspiro[2.4]hept-4-en-7-one], for which the inhibition at 10 µM was determined as 64.4% and the IC50 is approximately 4.9 µM.

Regarding `O=C(C1CC1)N1CCC(CN2C(=O)C3(CC3)N=C2c2ccc(-c3ccncc3)cc2)CC1` [compound 32, 6-{[1-(Cyclopropylcarbonyl)piperidin-4-yl]methyl}-5-(4-pyridin-4-ylphenyl)-4,6-diazaspiro[2.4]hept-4-en-7-one], the inhibition at 10 µM amounted to 6.8% and the IC50 was more than 10 µM.

Regarding `O=C(C1CC1)N1CCC(CN2C(=O)C3(CC3)N=C2c2ccc(-c3ccc4ocnc4c3)cc2)CC1` [compound 37, 5-[4-(1,3-Benzoxazol-5-yl)phenyl]-6-{[1-(cyclopropylcarbonyl)piperidin-4-yl]methyl}-4,6-diazaspiro[2.4]hept-4-en-7-one], the inhibition at 10 µM came to 28.6% and the IC50 was more than 10 µM.

As for `Cn1cc(-c2ccc(C3=NC4(CC4)C(=O)N3CC3CN(C(=O)C4CC4)C3)cc2)cn1` [compound 42, 6-{[1-(Cyclopropylcarbonyl)azetidin-3-yl]methyl}-5-[4-(1-methyl-1H-pyrazol-4-yl)phenyl]-4,6-diazaspiro[2.4]hept-4-en-7-one], the inhibition at 10 µM was determined as 23.5% and the IC50 was more than 10 µM.

As for `Cn1nccc1-c1ccc(C2=NC3(CC3)C(=O)N2CC2CN(C(=O)C3CC3)C2)cc1` [compound 43, 6-{[1-(Cyclopropylcarbonyl)azetidin-3-yl]methyl}-5-[4-(1-methyl-1H-pyrazol-5-yl)phenyl]-4,6-diazaspiro[2.4]hept-4-en-7-one], the inhibition at 10 µM was 45.4% and the IC50 was approximately 10 µM.

Consider `CN1CCN(c2ccc(-c3ccc(C4=NC5(CCCC5)C(=O)N4C[C@@H]4CCN(C(=O)C5CC5)C4)cc3)cn2)CC1` [compound 44, 3-{[(3R)-1-(Cyclopropylcarbonyl)pyrrolidin-3-yl]methyl}-2-{4-[6-(4-methylpiperazin-1-yl)pyridin-3-yl]phenyl}-1,3-diazaspiro[4.4]non-1-en-4-one], for which the inhibition at 10 µM was -0.97% and the IC50 was more than 10 µM.

Take `O=C(C1CC1)N1CC(CN2C(=O)C3(CC3)N=C2c2ccc(-c3ccc(O)cc3)cc2)C1` [compound 50, 6-{[1-(Cyclopropylcarbonyl)azetidin-3-yl]methyl}-5-(4′-hydroxybiphenyl-4-yl)-4,6-diazaspiro[2.4]hept-4-en-7-one]: the inhibition at 10 µM worked out at 64.8% and the IC50 was 3.47 µM.

For `Nc1cc(-c2ccc(C3=NC4(CC4)C(=O)N3CC3CN(C(=O)C4CC4)C3)cc2)ccc1O` [compound 53, 5-(3′-Amino-4′-hydroxybiphenyl-4-yl)-6-{[1-(cyclopropylcarbonyl)azetidin-3-yl]methyl}-4,6-diazaspiro[2.4]hept-4-en-7-one], the inhibition at 10 µM worked out at 78.6% and the IC50 is 1.95 µM.

For the compound `O=CNc1cc(-c2ccc(C3=NC4(CC4)C(=O)N3CC3CN(C(=O)C4CC4)C3)cc2)ccc1O` [compound 54, N-[4′-(6-{[-(Cyclopropylcarbonyl)azetidin-3-yl]methyl}-7-oxo-4,6-diazaspiro[2.4]hept-4-en-5-yl)-4-hydroxybiphenyl-3-yl]formamide], the inhibition at 10 µM was determined as 64.7% and the IC50 is 4.68 µM.

On to `O=C(C1CC1)N1CCC(CN2C(=O)C3(CC3)N=C2c2ccc(-c3ccc(O)cc3)cc2)CC1` [compound 55, 6-{[1-(Cyclopropylcarbonyl)piperidin-4-yl]methyl}-5-(4′-hydroxybiphenyl-4-yl)-4,6-diazaspiro[2.4]hept-4-en-7-one], for which the inhibition at 10 µM stood at 32.7% and the IC50 was more than 10 µM.

With `O=C(C1CC1)N1CCC(CN2C(=O)C3(CC3)N=C2c2ccc(-c3ccc(-c4ccncc4)cc3)cc2)CC1` [compound 61, 6-{[1-(Cyclopropylcarbonyl)piperidin-4-yl]methyl}-5-(4′-pyridin-4-ylbiphenyl-4-yl)-4,6-diazaspiro[2.4]hept-4-en-7-one], the inhibition at 10 µM came out at 63.2% and the IC50 was 3.98 µM.

Regarding `Cn1nccc1-c1ccc(-c2ccc(C3=NC4(CC4)C(=O)N3CC3CCN(C(=O)C4CC4)CC3)cc2)cc1` [compound 62, 6-{[1-(Cyclopropylcarbonyl)piperidin-4-yl]methyl}-5-[4′-(1-methyl-1H-pyrazol-5-yl)biphenyl-4-yl]-4,6-diazaspiro[2.4]hept-4-en-7-one], the inhibition at 10 µM came to 29.3% and the IC50 was more than 10 µM.

`N#Cc1cccc(-c2ccc(C3=NC4(CCCC4)C(=O)N3C[C@@H]3CCN(C(=O)C4CC4)C3)cc2)c1` [compound 83, 4′-(3-{[(3R)-1-(Cyclopropylcarbonyl)pyrrolidin-3-yl]methyl}-4-oxo-1,3-diazaspiro[4.4]non-1-en-2-yl)biphenyl-3-carbonitrile]: the inhibition at 10 µM came out at 65.6% and the IC50 was 4.79 µM.
